Data: patent US20240041042A1, “1-(PYRIDYL)-5-AZINYLPYRAZOLE DERIVATIVES, AND THEIR USE FOR CONTROL OF UNDESIRED PLANT GROWTH” (Bayer Aktiengesellschaft, priority 2020, published 2024)
Like-named read-outs stand apart in the source and are kept apart here.

Columns and labels:
Assay type in all cases: in vivo
Viola tricolor (VIOTR) [1] = experiment: Pre-emergence herbicidal action against VIOTR
Procedure, shortened: (§1)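 Herbicide applied to soil before seedling emergence, at 600 l/ha spray volume with 0.5% additive and rates up to 320 g/ha. Evaluation: visual percentage effect, about 3 weeks later, greenhouse-grown pots compared with untreated ones.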

[2] = tested on: Alopecurus myosuroides (ALOMY); experiment: Post-emergence herbicidal action against ALOMY; details: 80 g/ha, visual rating about 3 weeks after treatment vs untreated controls (100% = plants have died, 0% = like control plants)
Procedure, shortened: (§2)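 Post-emergence greenhouse spray, one-leaf stage, 600 l/ha water plus 0.5% additive; WP or EC formulations; application rates 320 g/ha or lower. Visual % damage vs untreated controls at ~3 weeks.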

[3] = tested on: Pharbitis purpurea (PHBPU); experiment: Post-emergence herbicidal action against PHBPU
Procedure, shortened: as §2

[4] = tested on: Polygonum convolvulus (POLCO); experiment: Pre-emergence herbicidal action against POLCO
Procedure, shortened: as §1

[5] = tested on: Amaranthus retroflexus (AMARE); experiment: Pre-emergence herbicidal action against AMARE; details: visual scoring after about 3 weeks vs untreated controls
Procedure, shortened: as §1

[6] = tested on: Digitaria sanguinalis (DIGSA); experiment: Post-emergence herbicidal action against DIGSA; details: visual rating about 3 weeks after treatment
Procedure, shortened: as §2

Lolium rigidum (LOLRI) = experiment: Pre-emergence herbicidal action against LOLRI
Procedure, shortened: as §1

[7] = tested on: Pharbitis purpurea (PHBPU); experiment: Pre-emergence herbicidal action against PHBPU
Procedure, shortened: as §1

Oryza sativa (ORYSA) = details: crop plant compatibility
Procedure, shortened: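 One-leaf-stage crops (2–3 wk post-sowing, sandy loam, greenhouse) sprayed on green parts; 0.5% additive, 600 l/ha water. Rated by eye ~3 wk later, % vs untreated; suffixes a/b/c mark different dosages.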

Setaria viridis (SETVI) [8] = experiment: Pre-emergence herbicidal action against SETVI
Procedure, shortened: as §1

[9] = tested on: Alopecurus myosuroides (ALOMY); experiment: Pre-emergence herbicidal action against ALOMY; details: scored visually after about 3 weeks, 100% = plants have died
Procedure, shortened: as §1

[10] = tested on: Echinochloa crus-galli (ECHCG); experiment: Pre-emergence herbicidal action against ECHCG
Procedure, shortened: as §1

[11] = tested on: Matricaria inodora (MATIN); experiment: Pre-emergence herbicidal action against MATIN
Procedure, shortened: as §1

Setaria viridis (SETVI) [12] = experiment: Post-emergence herbicidal action against SETVI
Procedure, shortened: as §2

[13] = tested on: Digitaria sanguinalis (DIGSA); experiment: Pre-emergence herbicidal action against DIGSA
Excerpt: Seeds of monocotyledonous and dicotyledonous weed plants and crop plants are placed in plastic or organic planting pots and covered with soil. The compounds of the invention, formulated in the form of wettable powders (WP) or as emulsion concentrates (EC), are then applied to the surface of the covering soil as aqueous suspension or emulsion with addition of 0.5% additive at a water application rate equivalent to 600 l/ha. After the treatment, the pots are placed in a greenhouse and kept under good growth conditions for the trial plants. After about 3 weeks, the effect of the preparations is scored visually in comparison with untreated controls as percentages. For example, 100% activity=the plants have died, 0% activity=like control plants.
Tables A1 to A13 below show the effects of selected compounds of the general formula (I) on various harmful plants and at an application rate corresponding to 320 g/ha or lower, which were obtained by the experimental procedure mentioned above. The appendices “a”, “b” and “c” give differentiation by dosage used with otherwise the same harmful plants tested.

[14] = tested on: Amaranthus retroflexus (AMARE); experiment: Post-emergence herbicidal action against AMARE; details: 80 g/ha, visual rating about 3 weeks after treatment vs untreated controls (100% = plants have died, 0% = like control plants)
Procedure, shortened: as §2

[15] = tested on: Verconica persica (VERPE); experiment: Post-emergence herbicidal action against VERPE
Procedure, shortened: as §2

Avena fatua (AVEFA) [16] = experiment: Pre-emergence herbicidal action against AVEFA; details: 320 g/ha, visual scoring after about 3 weeks vs untreated controls
Procedure, shortened: as §1

[17] = tested on: Matricaria inodora (MATIN); experiment: Post-emergence herbicidal action against MATIN
Procedure, shortened: as §2

[18] = tested on: Echinochloa crus-galli (ECHCG); experiment: Post-emergence herbicidal action against ECHCG
Procedure, shortened: as §2

[19] = tested on: Verconica persica (VERPE); experiment: Pre-emergence herbicidal action against VERPE
Procedure, shortened: as §1

[20] = tested on: Abutilon theophrasti (ABUTH); experiment: Post-emergence herbicidal action against ABUTH; details: visual rating about 3 weeks after treatment vs untreated controls (100% = plants have died, 0% = like control plants)
Procedure, shortened: as §2

Viola tricolor (VIOTR) [21] = experiment: Post-emergence herbicidal action against VIOTR
Procedure, shortened: as §2

Avena fatua (AVEFA) [22] = experiment: Post-emergence herbicidal action against AVEFA; details: 320 g/ha, visual rating about 3 weeks after treatment
Procedure, shortened: as §2

[23] = 80 g/ha, effect in comparison to untreated controls
[24] = 80 g/ha, visual scoring after about 3 weeks vs untreated controls

Post-emergence action against ORYSA in % (Oryza sativa (ORYSA); [23]) | Structure (SMILES) | Pre-emergence action against VIOTR in % (Viola tricolor (VIOTR) [1]; 320 g/ha, Viola tricolor) | Post-emergence action against PHBPU in % ([3]; dosage 80 g/ha) | Pre-emergence action against POLCO in % ([4]; dosage 80 g/ha) | Pre-emergence action against POLCO in % ([4]; dosage 320 g/ha) | Pre-emergence action against AMARE in % ([5]; 80 g/ha) | Pre-emergence action against AMARE in % ([5]; 320 g/ha) | Post-emergence action against DIGSA in % ([6]; 80 g/ha) | Pre-emergence action against LOLRI in % (Lolium rigidum (LOLRI); dosage 320 g/ha) | Pre-emergence action against PHBPU in % ([7]; dosage 320 g/ha) | Pre-emergence action against SETVI in % (Setaria viridis (SETVI) [8]; dosage 80 g/ha) | Pre-emergence action against SETVI in % (Setaria viridis (SETVI) [8]; dosage 320 g/ha) | Pre-emergence action against ALOMY ([9]; 320 g/ha) | Pre-emergence action against ECHCG in % ([10]; dosage 320 g/ha) | Pre-emergence action against MATIN in % ([11]; dosage 320 g/ha) | Pre-emergence action against DIGSA in % [13, 24] | Pre-emergence action against DIGSA in % ([13]; dosage 320 g/ha) | Post-emergence action against MATIN in % ([17]; dosage 80 g/ha) | Post-emergence action against ECHCG in % ([18]; dosage 80 g/ha) | Pre-emergence action against VERPE in % ([19]; dosage 320 g/ha) | other results
0% | O=C(O)CNC(=O)COc1nn(-c2ccccn2)c(-c2ccc(F)nc2)c1Cl [Example I-118] | 100% | 80% | 80% | 90% | 90% | 100% | 80% | 100% | 90% | 90% | 100% | 100% | 100% | 90% | 100% | 100% | 80% | 80% | 90% | Post-emergence action against ALOMY in % [2]: 100%; Pre-emergence action against LOLRI in % (Lolium rigidum (LOLRI); dosage 80 g/ha): 90%; Post-emergence action against ORYSA in % (Oryza sativa (ORYSA); 20 g/ha, effect vs untreated controls): 0%; Pre-emergence action against ALOMY ([9]; 80 g/ha): 90%; Post-emergence action against SETVI in % (Setaria viridis (SETVI) [12]; dosage 80 g/ha): 80%; Post-emergence action against AMARE in % [14]: 90%; Post-emergence action against VERPE in % ([15]; dosage 80 g/ha): 90%; Pre-emergence action against AVEFA in % (Avena fatua (AVEFA) [16]): 90%; Post-emergence action against ABUTH in % ([20]; 80 g/ha): 80%
10% | O=C(O)COc1nn(-c2nc(F)ccc2F)c(-c2cncc(F)c2)c1Cl [Example I-231] | 100% | – | – | – | – | 90% | – | 80% | 90% | 90% | 90% | 90% | 90% | 90% | 90% | 100% | 80% | 80% | 80% | Pre-emergence action against VIOTR in % (Viola tricolor (VIOTR) [1]; dosage 80 g/ha): 100%; Post-emergence action against PHBPU in % ([3]; dosage 320 g/ha): 80%; Post-emergence action against DIGSA in % ([6]; 320 g/ha): 90%; Pre-emergence action against PHBPU in % ([7]; dosage 80 g/ha): 90%; Pre-emergence action against ECHCG in % ([10]; dosage 80 g/ha): 90%; Pre-emergence action against MATIN in % ([11]; dosage 80 g/ha): 90%; Post-emergence action against SETVI in % (Setaria viridis (SETVI) [12]; dosage 320 g/ha): 80%; Post-emergence action against VERPE in % ([15]; 320 g/ha, VERPE): 80%; Pre-emergence action against AVEFA in % (Avena fatua (AVEFA) [16]): 90%; Post-emergence action against MATIN in % ([17]; dosage 320 g/ha): 80%; Post-emergence action against VIOTR in % (Viola tricolor (VIOTR) [21]; 320 g/ha): 80%; Post-emergence action against ECHCG in % ([18]; dosage 320 g/ha): 90%; Pre-emergence action against VERPE in % ([19]; dosage 80 g/ha): 80%
10% | COC(=O)COc1nn(-c2nc(F)ccc2F)c(-c2cncc(F)c2)c1Cl [Example I-216] | 100% | 80% | 90% | 90% | 90% | 90% | 80% | 80% | 90% | 80% | 100% | 90% | 100% | 90% | 90% | 100% | 80% | 80% | 90% | Pre-emergence action against VIOTR in % (Viola tricolor (VIOTR) [1]; dosage 80 g/ha): 100%; Post-emergence action against PHBPU in % ([3]; dosage 320 g/ha): 80%; Post-emergence action against AVEFA in % (Avena fatua (AVEFA) [22]): 80%; Post-emergence action against DIGSA in % ([6]; 320 g/ha): 80%; Pre-emergence action against PHBPU in % ([7]; dosage 80 g/ha): 90%; Pre-emergence action against ECHCG in % ([10]; dosage 80 g/ha): 80%; Pre-emergence action against MATIN in % ([11]; dosage 80 g/ha): 90%; Post-emergence action against SETVI in % (Setaria viridis (SETVI) [12]; dosage 320 g/ha): 80%; Post-emergence action against MATIN in % ([17]; dosage 320 g/ha): 80%; Post-emergence action against VIOTR in % (Viola tricolor (VIOTR) [21]; 80 g/ha): 80%; Post-emergence action against VIOTR in % (Viola tricolor (VIOTR) [21]; 320 g/ha): 80%; Post-emergence action against ECHCG in % ([18]; dosage 320 g/ha): 80%; Post-emergence action against ABUTH in % ([20]; 320 g/ha): 80%
